This is an account of results in patent publication US7858741B2, “Stabilization of the collagen triple helix by O-methylation of hydroxyproline residues” (Wisconsin Alumni Research Foundation, priority 2008, dated 2010).

Data set [1] can be described thus: Crystal structure conformation (main-chain dihedral angles, n→π* geometry). The format is physicochemical. The conditions noted are these: crystalline Ac-Mop-OMe. As to the method: [^13CH3]Ac-Mop-OMe (10 mg) was dissolved in 1:1 CH2Cl2/hexanes (1 mL) and the solution was allowed to stand at room temperature in a loosely-capped vial. Slow evaporation afforded crystals suitable for X-ray analysis after ˜72 h (all solvent had evaporated).
A colorless crystal with approximate dimensions 0.49×0.41×0.23 mm^3 was selected under oil under ambient conditions and attached to the tip of a nylon loop. The crystal was mounted in a stream of cold N2 (g) at 100(2) K and centered in the X-ray beam by using a video camera.
The crystal evaluation and data collection were performed on a Bruker CCD-1000 diffractometer with Mo Kα (λ=0.71073 Å) radiation and the diffractometer-to-crystal distance of 4.9 cm.
The initial cell constants were obtained from three series of scans at different starting angles. Each series consisted of 20 frames collected at intervals of 0.3° in a 6° range about ω with the exposure time of 10 s per frame. A total of 69 reflections were obtained. The reflections were indexed successfully by an automated indexing routine built in the SMART program. The final cell constants were calculated from a set of 4805 strong reflections from the actual data collection.
Data were collected by using the full-sphere data collection routine. The reciprocal space was surveyed to the extent of a full sphere to a resolution of 0.80 Å. A total of 6155 data were harvested by collecting three sets of frames with 0.3° scans in ω and ? with an exposure time 10 s per frame. These highly redundant datasets were corrected for Lorentz and polarization effects. The absorption correction was based on fitting a function to the empirical transmission surface as sampled by multiple equivalent measurements. (Bruker-AXS. (2000-2003) SADABS V.2.05, SAINT V.6.22, SHELXTL V.6.10 & SMART 5.622 Software Reference Manuals. Bruker-AXS, Madison, Wis., USA.)
The systematic absences in the diffraction data were consistent for the space groups P21 and P21/m.
A successful solution by the direct methods provided most non-hydrogen atoms from the E-map. The remaining non-hydrogen atoms were located in an alternating series of least-squares cycles and difference Fourier maps. All non-hydrogen atoms were refined with anisotropic displacement coefficients. All hydrogen atoms were found in the difference map and refined independently. The absolute configuration was assigned from the known synthetic procedure.
The final difference Fourier map was featureless. The molecular diagram is drawn with 50% probability ellipsoids as depicted in FIG. 2.

For data set [2] the following is noted: value from Holmgen et al. Nature 392:666-667 (1998); cited from earlier work.
The conditions of data set [3]: cited from earlier work; for ΔG: values from Nishi et al. (2005) (Kobayashi and coworkers); for ΔG / TΔS / ΔH: normalized to T°=71.9° C.; for TΔS / ΔH: values from Nishi et al. (2005).
For data set [4] the following is noted: cited from earlier work.
For data set [5] the following is noted: cited from earlier work. The source holds these as a separate data set.
Data set [6] is described as follows: Thermal denaturation of collagen triple helices by circular dichroism (Tm). In kind it is physicochemical. The settings on record: for Tm, water / Tm, EG(aq): circular dichroism, peptide 200 μM; for Tm, water: 50 mM HOAc (pH 3.0); for Tm, EG(aq): 2:1 EG/50 mM HOAc (pH 3.0). As to the method:
CD spectra were recorded with an Aviv 202SF circular dichroism spectrometer. Spectra were recorded on peptide solutions (100 μM in 50 mM HOAc (pH 2.9)) that had been incubated at ≦4° C. for ≧48 h in 1-nm increments with a 3-s averaging time, 1-nm bandpass, and 0.1-cm pathlength. Samples for thermal stability experiments were generated by incubating peptide solutions (200 μM) at 4° C. for ≧48 h. The solutions were then heated from 4° C. to 97° C. (for samples in 50 mM HOAc (aq) (pH 2.9)) or to 106° C. (for samples in 2:1 ethylene glycol/50 mM HOAc(aq)) at 3-° C. increments with a 5-min equilibration at each step. The ellipticity at 225 nm was monitored with a 5-s averaging time, 1-nm bandpass, and 0.1-cm pathlength. Values of Tm were determined by fitting the data to a two-state model. (See Becktel and Schellman Biopolymers 26:1859-1877 (1987)).

Data set [7] is described as follows: Differential scanning calorimetry (DSC) of triple-helix unfolding. The format is physicochemical. The settings on record: for Tm (DSC exotherm maxima): scan rate 15° C./h; for TΔS / ΔH / ΔG: DSC. As to the method:
DSC measurements were conducted on a VP-DSC instrument (MicroCal, LLC, Northampton, Mass.). For each peptide, an instrument baseline was established by filling both the sample and the reference cell with degassed 50 mM HOAc(aq) (pH 2.9) and scanning from 5-98° C. at 15° C./h until at least 3 consecutive overlaying scans were observed. The last of these scans was used as the baseline for each subsequent peptide scan.
Peptide solutions (˜0.5 mg/mL in 50 mM HOAc(aq)), incubated at 4° C. for ≧48 h, were degassed and loaded into the sample cell (without removing the reference solution) during the cool down from the final baseline scan (at ˜15° C.). Samples were scanned from 5-98° C. at 15° C./h; the first scan of each sample was used in the analysis. […] Nevertheless, a second run with a fresh sample (incubated at 4° C. for ≧48 h) gave a trace that overlaid with the initial scan for both peptides.
After DSC measurements, peptide concentrations were determined by quantitative amino acid analysis (Scientific Research Consortium, Inc., St. Paul, Minn.). Peptide concentrations of 231 μM for (ProHypGly)10 and 129 μM for (ProMopGly)10 were calculated from the average of Gly and Pro content.
Data processing was done using the MicroCal software in the Origin 7 program (OriginLab Corp., Northampton, Mass.). For each sample, the appropriate reference scan was subtracted from the sample scan and the data were normalized to the monomer concentrations (determined above).
Values of ΔH (per mole of monomer) were obtained by direct integration of the DSC exotherms. Using ΔH and the exotherm maxima as the Tm (64.3° C. for (ProHypGly)10 and 73.8° C. for (ProMopGly)10), TΔS (at Tm) was calculated with the equation: Tm=ΔH/(ΔS+R·1n(0.75c^2)), where c is the concentration of monomeric peptide. (See Engel and Bäichinger P. Top. Curr. Chem. 247:7-33 (2005)). Values of ΔG were then calculated with the equation: ΔG=ΔH−TΔS. […] (See Nishi et. al. (2005)). The data of Kobayashi and coworkers were normalized to T°=71.9° C. (which is the T° for (ProProGly)10, i.e. where ΔG=0). Because our thermodynamic data for (ProMopGly)10 were determined at nearly the same temperature (73.8° C.), comparisons of the three peptides are meaningful.
In general terms: In DSC, transitions show as peaks or steps in heat flow.

For data set [8] the following is noted: compared with (ProProGly)10 chains; Chopra and Ananthanarayanan (1982); cited from earlier work.
For data set [9] the following is noted: Sakakibara et al. (1973); cited from earlier work.
Where [10] appears, read: values from Bretscher et al. (2001).
Setting [11] is: mean values from two molecules in ref 18.
Setting [12] is: mean values for Hyp in 13 (Bella et al. 1994; Miles and Burjanadze 2001).

Where two headings read alike, the source gives them in different places. Marks after values point to notes of the source that are not given here.

Take `COC(=O)[C@@H]1C[C@@H](OC)CN1C(C)=O` [Ac-Mop-OMe, N-(2-^13CH3-Acetyl)-(2S,4R)-4-methoxyproline methyl ester]: in data set [1], the φ is listed as −58.1 ± 0.1 °, the ψ is recorded as 147.7 ± 0.1 ° and the ω is given as −179.7 ± 0.1 °. In [1] (n→π* interaction), the “Oi-1...C′i=Oi angle” value is on record as 94.6 ° and the “Oi-1...C′i=Oi distance” value came out at 2.84 Å.
On to (ProFlpGly)10 [Peptide 3], for which, in [2], the “Tm, water” value is recorded as 91^d ° C. Also, in data set [3], the ΔG was −3.3^c kcal/mol, the TΔS is given as −17.2^c kcal/mol and the ΔH is on record as −20.5^c kcal/mol.
For `COC(=O)[C@@H]1C[C@@H](F)CN1C(C)=O` [Ac-Flp-OMe], the Kt/c in data set [4] (setting [10]) is 6.7. Moreover, in data set [5] (setting [11]), the φ is listed as −55.0 °, the ψ is on record as 140.5 ° and the ω is −178.9 °.
(ProMopGly)10 [Peptide 2]: the “stability of triple helix compared with triple helical peptide 1” value in data set [6] (aqueous ethylene glycol) was “more stable”. In addition, in [6], the “Tm, water” value is 70.1 °C and the “Tm, EG(aq)” value came to 89.1 °C. Besides, the “conformational stability of triple helices compared with those of 1” value in data set [6] (in water (50 mM HOAc)) is “substantially more conformational stability”. Besides, the “Tm (DSC exotherm maxima)” value in data set [7] (50 mM HOAc) came to 73.8 °C. Also, the TΔS in data set [7] (at Tm 73.8° C., calculated from ΔH and Tm) was -25.2 kcal/mol. Also, the ΔH in [7] (per mole of monomer, 50 mM HOAc, at 73.8° C.) is -27.9 kcal/mol. The compound further yielded a ΔG in data set [7] (ΔG=ΔH−TΔS, at 73.8° C.) of -2.7 kcal/mol.
As for (ProEopGly)10, the “triple-helix stability compared with Hyp (or Mop)” value in data set [6] (in water, no value or method printed) is “less stable”.
As to `COC(=O)[C@@H]1C[C@@H](O)CN1C(C)=O` [Ac-Hyp-OMe], in [4] (setting [10]), the Kt/c was 6.1. Further, in [5] (setting [11]), the φ was −57.0 °, the ψ was 150.8 ° and the ω is reported as −178.8 °.
In the case of (ProHypGly)10 [Peptide 1], the “rate at which chains fold into a triple helix” value in [8] is “substantially greater”. Moreover, the Kt/c entry in data set [4] (Hyp in 13 (triple helix)) is “∞”. Besides, in data set [3], the ΔG is given as −2.0^c kcal/mol, the TΔS is given as −33.2^c kcal/mol and the ΔH is recorded as −35.2^c kcal/mol. Further, the ΔG in data set [3] (listed as (ProHypGly)10) is -2.0 kcal/mol. Moreover, in [6], the “Tm, water” value worked out at 62.0 °C and the “Tm, EG(aq)” value turned out to be 77.1 °C. In data set [7] (50 mM HOAc), the “Tm (DSC exotherm maxima)” value worked out at 64.3 °C. In [7] (at 64.3° C.), the TΔS was -27.3 kcal/mol, the ΔG is -2.2 kcal/mol and the ΔH was -29.5 kcal/mol. Moreover, the “melting temperature of a triple helix” value in data set [9] is 58 °C. Moreover, in data set [5] (setting [12]), the φ is listed as −59.6 °, the ψ was 149.8 ° and the ω is 178.5 °.
As for (ProProGly)10, the “T° (where ΔG=0)” value in data set [3] (data of Kobayashi and coworkers (Nishi et al. 2005)) is 71.9 °C. Moreover, the “melting temperature of a triple helix” value in data set [9] was 24 °C.
